From patent publication US20110280940A1, “Di-Vanilloyl And Tri-Vanilloyl Derivatives For Use In Anti-Cancer Therapy” (priority 2008, published 2011)
Blank lines part the entries; values can stand above or below the molecule they belong to.

How the values were obtained:
255 protein kinases = assay: Kinase inhibition profile of DLT95-Cl at 20 μM (33 PanQinase); type: biochemical, human; settings: over the 255 kinases screened
Protocol: In view of the results in FIG. 5 and Table 7, the inventors performed a broader analysis on impairment of 255 protein kinases by DLT95-Cl compound of the invention.
255 kinases where tested with DLT95-Cl at 20 μM to establish the kinase inhibition profile of the compound.
(§1) The kinase inhibition profile of DLT95-Cl at 20 μM was determined using 255 protein kinases. Residual activity values were measured by testing each compound at one concentration in duplicate in each kinase assay. A radiometric protein kinase assay (33 PanQinase®Activity Assay) was used for measuring the kinase activity of 250 protein kinases. All kinase assays were performed in 96-well flashPlates™ from Perkin Elmer (Boston, Mass., USA) in a 50 μl reaction volume. […]
(§2) Incorporation of ^33Pi (counting of “cpm”) was determined with a microplate scintillation counter (Microbeta, Wallac).
For each kinase, the median value of the cpm of three wells with complete reaction cocktails, but without kinase, was defined as “low control” (n=2). This value reflects unspecific binding of radioactivity to the plate in the absence of protein kinase but in the presence of the substrate. […] The residual activity (in %) for each compound well was calculated by using the following formula: Res. Activity (%)=100×[(cpm of compound−low control)/(high control−low control)]

Erk2 = Erk2 (Rattus norvegicus, UniProt P63086); assay: Kinase activity assay, Erk2; type: biochemical; settings: 10 μM, 1% DMSO, 15 μM ATP; residual activity
Protocol: Buffer A: 10 mM MgCl2, 1 mM EGTA, 1 mM DTT, 25 mM Tris-HCl pH 7.5, 50 μg heparin/ml. Buffer C: 60 mM β-glycerophosphate, 15 mM p-nitrophenylphosphate, 25 mM Mops (pH 7.2), 5 mM EGTA, 15 mM MgCl2, 1 mM DTT, 1 mM sodium vanadate, 1 mM phenyl phosphate.
Kinase activities were assayed in Buffer A or C, at 30° C., at a final ATP concentration of 15 μM. Blank values were subtracted and activities expressed in % of the maximal activity, i.e. in the absence of inhibitors. Controls were performed with appropriate dilutions of DMSO.
Erk2 (rat, recombinant) was assayed as described for CDK1 but using the specific substrate Ets1 (amino acids 1-138) in buffer A.

250 protein kinases = assay: Kinase inhibition profile of DLT11 at 20 μM (33 PanQinase); type: biochemical, human; settings: out of 250 kinases
Protocol: as §1, with “DLT11” for “DLT95-Cl”, “250” for “255”, “volume. The reaction cocktail was pipetted in 4 steps in the following order: • 10 μl of non-radioactive ATP solution (in H2O) • 25 μl of assay buffer/[γ-33P]-ATP mixture • 5 μl of test sample in 10% DMSO • 10 μl of enzyme/substrate mixture” for “volume.”
as §2
For each kinase, the median value of the cpm of three wells with complete reaction cocktails, but without kinase, was defined as “low control” (n=3). This value reflects unspecific binding of radioactivity to the plate in the absence of protein kinase but in the presence of the substrate. […] The residual activity (in %) for each compound well was calculated by using the following formula: Res. Activity (%)=100×[(cpm of compound−low control)/(high control−low control)] […]

Chain of Erk2 (P63086 whole entry): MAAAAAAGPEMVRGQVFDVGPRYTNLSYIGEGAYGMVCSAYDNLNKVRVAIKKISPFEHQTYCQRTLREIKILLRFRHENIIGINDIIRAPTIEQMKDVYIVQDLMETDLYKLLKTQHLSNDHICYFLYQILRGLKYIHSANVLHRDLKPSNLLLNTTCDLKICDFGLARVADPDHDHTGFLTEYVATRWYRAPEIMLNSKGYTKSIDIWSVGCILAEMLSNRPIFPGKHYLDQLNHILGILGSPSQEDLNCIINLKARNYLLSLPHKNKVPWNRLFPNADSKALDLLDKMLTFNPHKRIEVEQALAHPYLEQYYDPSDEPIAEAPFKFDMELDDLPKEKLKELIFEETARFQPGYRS

Structure (SMILES): O=C(OCc1cc(COC(=O)c2ccc(O)c(Cl)c2)cc(COC(=O)c2ccc(O)c(Cl)c2)c1)c1ccc(O)c(Cl)c1 [DLT95-Cl, [3,5-bis[(4-hydroxy-3-chloro-benzoyl)oxymethyl]phenyl]methyl 4-hydroxy-3-chloro-benzoate]
number of kinases whose activity is ≧50% impaired (255 protein kinases): 249

Structure (SMILES): COc1cc(C(=O)OCCOC(=O)c2ccc(O)c(OC)c2)ccc1O [DLT1, Ethane-1,2-diyl bis-(4-hydroxy-3-methoxybenzoate)]
% ENZYMATIC ACTIVITY, Erk2 (Erk2): 99%

number of kinases that had their activity inhibited (250 protein kinases): 19
Structure (SMILES): COc1cc(C(=O)OCCCCCCOC(=O)c2ccc(O)c(OC)c2)ccc1O [DLT11, Hexane-1,6-diyl bis-(4-hydroxy-3-methoxybenzoate)]
